B1: Endoplasmic reticulum aminopeptidase 1 (Homo sapiens), Q9NZ08 (protein)
chain: MVFLPLKWSLATMSFLLSSLLALLTVSTPSWCQSTEASPKRSDGTPFPWNKIRLPEYVIPVHYDLLIHANLTTLTFWGTTKVEITASQPTSTIILHSHHLQISRATLRKGAGERLSEEPLQVLEHPRQEQIALLAPEPLLVGLPYTVVIHYAGNLSETFHGFYKSTYRTKEGELRILASTQFEPTAARMAFPCFDEPAFKASFSIKIRREPRHLAISNMPLVKSVTVAEGLIEDHFDVTVKMSTYLVAFIISDFESVSKITKSGVKVSVYAVPDKINQADYALDAAVTLLEFYEDYFSIPYPLPKQDLAAIPDFQSGAMENWGLTTYRESALLFDAEKSSASSKLGITMTVAHELAHQWFGNLVTMEWWNDLWLNEGFAKFMEFVSVSVTHPELKVGDYFFGKCFDAMEVDALNSSHPVSTPVENPAQIREMFDDVSYDKGACILNMLREYLSADAFKSGIVQYLQKHSYKNTKNEDLWDSMASICPTDGVKGMDGFCSRSQHSSSSSHWHQEGVDVKTMMNTWTLQKGFPLITITVRGRNVHMKQEHYMKGSDGAPDTGYLWHVPLTFITSKSDMVHRFLLKTKTDVLILPEEVEWIKFNVGMNGYYIVHYEDDGWDSLTGLLKGTHTAVSSNDRASLINNAFQLVSIGKLSIEKALDLSLYLKHETEIMPVFQGLNELIPMYKLMEKRDMNEVETQFKAFLIRLLRDLIDKQTWTDEGSVSERMLRSQLLLLACVHNYQPCVQRAEGYFRKWKESNGNLSLPVDVTLAVFAVGAQSTEGWDFLYSKYQFSLSSTEKSQIEFALCRTQNKEKLQWLLDESFKGDKIKTQEFPQILTLIGRNPVGYPLAWQFLRKNWNKLVQKFELGSSSIAHMVMGTTNQFSTRTRLEEVKGFFSSLKENGSQLRCVQQTIETIEENIGWMDKNFDKIRVWLQSEKLERM

Tests used:
[1] = molecular target: T1, Endoplasmic reticulum aminopeptidase 1 (Homo sapiens, UniProt Q9NZ08)
Description: Inhibition of wild type ERAP1 (unknown origin) using L-Rho-Succ-FKARKF as substrate preincubated for 15 mins followed by substrate addition and measured after 20 mins by flourescence assay

[2] = molecular target: Aminopeptidase N (Homo sapiens, UniProt P15144); test: Inhibition of APN (unknown origin) using Ala-AMC as substrate
[3] = molecular target: Endoplasmic reticulum aminopeptidase 2 (Homo sapiens, UniProt Q6P179); test: Inhibition of ERAP2 (unknown origin) using Arg-AMC as substrate
[4] = Microsomal stability in human liver microsomes assessed as intrinsic clearance; type: ADME, Microsome; details: read-out: CLH
[5] = Microsomal stability in mouse liver microsomes assessed as intrinsic clearance; type: ADME, Microsome; details: read-out: CLH
[6] = Permeability of compound across apical to basolateral side in human Caco2 cells; type: ADME, cell-based; details: Caco-2, read-out: permeability
[7] = molecular target: T1, Endoplasmic reticulum aminopeptidase 1; details: dose 10.0 µM, time 30.0 min
[8] = Microsomal stability in rat liver microsomes assessed as intrinsic clearance; type: ADME, Microsome; details: read-out: CLH
[9] = Stability in human hepatocytes assessed as intrinsic clearance; type: ADME, cell-based, Hepatocyte
[10] = molecular target: T2, Cytochrome P450 3A4 (Homo sapiens, UniProt P08684); test: Inhibition of CYP3A4 (unknown origin) using testosterone as substrate; type: ADME
[11] = molecular target: T2, Cytochrome P450 3A4; test: Inhibition of CYP3A4 (unknown origin) using midazolam as substrate; type: ADME
[12] = molecular target: T1, Endoplasmic reticulum aminopeptidase 1; test: Inhibition of ERAP1 (unknown origin) using L-Rho-Succ-AFKARKF as substrate
[13] = molecular target: T1, Endoplasmic reticulum aminopeptidase 1; test: Inhibition of ERAP1 (unknown origin) using L-Rho-(D)-Q as substrate
[14] = molecular target: T1, Endoplasmic reticulum aminopeptidase 1; test: Inhibition of ERAP1 (unknown origin) using L-Rho-Succ-FKARKF as substrate
[15] = substrate: CC(C)C[C@H](N)C(=O)Nc1ccc2c(c1)Oc1cc(NC(=O)[C@@H](CCC(N)=O)N[C@@H](CCCCN)C(=O)N[C@@H](C)C(=O)N[C@@H](CCCNC(=N)N)C(=O)N[C@@H](CCCCN)C(=O)N[C@@H](Cc3ccccc3)C(=O)O)ccc1C21OC(=O)c2ccccc21; details: Homo sapiens
Description: Inhibition of ERAP1 (unknown origin) using L-Rho-Succ-KARKF as substrate

[16] = substrate: CC(C)C[C@H](N)C(=O)Nc1ccc2c(c1)Oc1cc(NC(=O)[C@@H](CCC(N)=O)N[C@@H](Cc3ccccc3)C(=O)N[C@@H](CCCCN)C(=O)N[C@@H](C)C(=O)N[C@@H](CCCNC(=N)N)C(=O)N[C@@H](CCCCN)C(=O)N[C@@H](Cc3ccccc3)C(=O)O)ccc1C21OC(=O)c2ccccc21; details: Homo sapiens
[17] = substrate: CC(C)C[C@H](N)C(=O)Nc1ccc2c(c1)Oc1cc(NC(=O)[C@@H](CCC(N)=O)N[C@@H](C)C(=O)N[C@@H](Cc3ccccc3)C(=O)N[C@@H](CCCCN)C(=O)N[C@@H](C)C(=O)N[C@@H](CCCNC(=N)N)C(=O)N[C@@H](CCCCN)C(=O)N[C@@H](Cc3ccccc3)C(=O)O)ccc1C21OC(=O)c2ccccc21; details: Homo sapiens
[18] = substrate: CC(C)C[C@H](N)C(=O)Nc1ccc2c(c1)Oc1cc(NC(=O)[C@H](N)CCC(N)=O)ccc1C21OC(=O)c2ccccc21; details: Homo sapiens

Aminopeptidase N, sequence (P15144 whole entry): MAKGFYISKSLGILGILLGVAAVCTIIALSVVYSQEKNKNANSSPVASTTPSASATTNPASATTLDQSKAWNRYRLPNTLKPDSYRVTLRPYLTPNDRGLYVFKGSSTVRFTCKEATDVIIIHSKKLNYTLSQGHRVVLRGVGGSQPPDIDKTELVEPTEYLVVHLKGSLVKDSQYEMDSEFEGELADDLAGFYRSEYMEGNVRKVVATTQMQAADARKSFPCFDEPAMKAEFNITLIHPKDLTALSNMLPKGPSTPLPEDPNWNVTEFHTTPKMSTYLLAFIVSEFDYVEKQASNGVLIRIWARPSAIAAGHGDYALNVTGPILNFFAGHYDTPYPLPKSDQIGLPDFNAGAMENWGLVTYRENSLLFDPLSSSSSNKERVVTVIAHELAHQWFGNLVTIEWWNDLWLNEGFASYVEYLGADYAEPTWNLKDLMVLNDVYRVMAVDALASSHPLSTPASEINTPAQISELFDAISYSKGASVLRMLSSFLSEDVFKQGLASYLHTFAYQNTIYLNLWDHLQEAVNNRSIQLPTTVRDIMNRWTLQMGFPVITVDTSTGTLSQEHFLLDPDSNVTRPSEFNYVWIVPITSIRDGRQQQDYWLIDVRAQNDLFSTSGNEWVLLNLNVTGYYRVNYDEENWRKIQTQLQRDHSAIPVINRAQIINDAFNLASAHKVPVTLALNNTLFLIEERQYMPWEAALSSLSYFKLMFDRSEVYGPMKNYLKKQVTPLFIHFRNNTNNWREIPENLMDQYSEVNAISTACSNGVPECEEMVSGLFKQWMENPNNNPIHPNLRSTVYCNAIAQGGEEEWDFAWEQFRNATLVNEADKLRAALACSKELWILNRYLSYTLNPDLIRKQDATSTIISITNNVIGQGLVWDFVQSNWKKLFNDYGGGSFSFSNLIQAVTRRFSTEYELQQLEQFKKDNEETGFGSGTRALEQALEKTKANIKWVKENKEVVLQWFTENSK
Endoplasmic reticulum aminopeptidase 2, sequence (Q6P179 whole entry): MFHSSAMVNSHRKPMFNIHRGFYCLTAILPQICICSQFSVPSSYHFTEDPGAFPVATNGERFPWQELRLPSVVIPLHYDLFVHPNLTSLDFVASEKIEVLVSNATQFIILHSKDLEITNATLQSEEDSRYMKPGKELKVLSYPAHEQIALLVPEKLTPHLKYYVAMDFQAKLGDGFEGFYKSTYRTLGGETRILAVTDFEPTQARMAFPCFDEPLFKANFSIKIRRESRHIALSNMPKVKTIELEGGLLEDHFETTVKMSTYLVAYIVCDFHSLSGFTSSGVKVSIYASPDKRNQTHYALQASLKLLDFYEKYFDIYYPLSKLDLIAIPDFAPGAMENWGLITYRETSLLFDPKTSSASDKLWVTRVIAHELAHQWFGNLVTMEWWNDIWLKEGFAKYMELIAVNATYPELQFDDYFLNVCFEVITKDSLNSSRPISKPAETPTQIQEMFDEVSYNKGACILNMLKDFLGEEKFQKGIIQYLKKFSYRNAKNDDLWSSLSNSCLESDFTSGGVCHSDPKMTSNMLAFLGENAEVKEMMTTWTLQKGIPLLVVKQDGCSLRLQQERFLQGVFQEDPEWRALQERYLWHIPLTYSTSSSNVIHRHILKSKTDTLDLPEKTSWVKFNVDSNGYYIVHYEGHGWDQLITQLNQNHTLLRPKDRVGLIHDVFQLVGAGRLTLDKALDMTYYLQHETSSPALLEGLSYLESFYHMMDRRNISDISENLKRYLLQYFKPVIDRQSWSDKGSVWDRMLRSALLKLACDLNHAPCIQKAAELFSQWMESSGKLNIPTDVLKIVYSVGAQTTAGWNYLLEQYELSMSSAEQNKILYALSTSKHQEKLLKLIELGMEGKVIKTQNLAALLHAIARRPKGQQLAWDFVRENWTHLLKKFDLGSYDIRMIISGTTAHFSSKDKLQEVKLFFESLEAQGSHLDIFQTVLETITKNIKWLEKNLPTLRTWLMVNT
T2 sequence (P08684 whole entry): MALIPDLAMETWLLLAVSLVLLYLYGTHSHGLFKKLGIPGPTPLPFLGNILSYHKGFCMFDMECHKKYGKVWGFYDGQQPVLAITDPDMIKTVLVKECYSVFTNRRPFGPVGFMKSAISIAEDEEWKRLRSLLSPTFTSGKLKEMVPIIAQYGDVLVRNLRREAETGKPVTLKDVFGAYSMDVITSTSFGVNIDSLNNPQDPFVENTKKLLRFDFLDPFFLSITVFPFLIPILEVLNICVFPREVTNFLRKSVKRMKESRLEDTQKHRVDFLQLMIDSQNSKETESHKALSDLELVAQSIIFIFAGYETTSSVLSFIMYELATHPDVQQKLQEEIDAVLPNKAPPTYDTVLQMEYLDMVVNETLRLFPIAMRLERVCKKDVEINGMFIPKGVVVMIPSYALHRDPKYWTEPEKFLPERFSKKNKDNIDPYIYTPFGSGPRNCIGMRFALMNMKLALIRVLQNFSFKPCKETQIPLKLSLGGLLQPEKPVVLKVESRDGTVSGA

Row | Molecule | IC50 [1] [µM] | IC50 [2] [µM] | IC50 [3] [µM] | also measured
1 | CC(C)(NC(=O)c1cc(F)cc2cc(-c3ccc(Cl)cc3)oc12)c1nnn[nH]1 | 0.275 | – | – | –
2 | C[C@H](NC(=O)c1cc(F)cc2cc(-c3ccc(Cl)cc3)oc12)C(=O)O | 4.44 | – | – | –
3 | O=C(NC1(C(=O)O)CCCCC1)c1cccc2c(Br)c(-c3ccc(Cl)cc3)oc12 | 0.151 | > 30 | > 30 | –
4 | O=C(NC1(C(=O)O)Cc2ccccc2C1)c1cc(F)cc2cc(-c3ccc(Cl)cc3)oc12 | 0.115 | > 30 | > 30 | –
5 | CCC(C)(NC(=O)c1cc(F)cc2cc(-c3ccc(C(F)(F)F)cc3)oc12)C(=O)O (configuration not stated) | 2.68 | – | – | –
6 | O=C(NC1(C(=O)O)CCCCC1)c1cc(F)cc2cc(-c3ccc(Cl)cc3)oc12 | 0.034 | > 30 | > 30 | –
7 | O=C(N[C@H](Cc1ccccc1)C(=O)O)c1cc(F)cc2cc(-c3ccc(Cl)cc3)oc12 | 0.262 | > 30 | > 30 | –
8 | CCC(C)(NC(=O)c1cc(F)cc2cc(-c3ccc(Cl)cc3)oc12)C(=O)O (configuration not stated) | 0.377 | > 30 | > 30 | microsomal CLint [4]: 32 µL/min/mg; microsomal CLint [5]: 31 µL/min/mg; Papp A→B [6]: 8.5 ×10⁻⁶ cm/s; ΔTm [7]: 0.82 °C; microsomal CLint [8]: < 20 µL/min/mg; CLH [9]: 0.25 mL/h/10^6 cells; IC50 [10]: > 30 µM; IC50 [11]: > 30 µM
9 | CC(C)(NC(=O)c1cc(F)cc2cc(-c3ccc(Cl)cc3)oc12)C(N)=O | > 10 | – | – | –
10 | COC(=O)C(C)(C)NC(=O)c1cc(F)cc2cc(-c3ccc(Cl)cc3)oc12 | > 10 | – | – | –
11 | CC(C)C[C@H](N)C(=O)Nc1ccc2c(c1)Oc1cc(NC(=O)[C@@H](CCC(N)=O)N[C@@H](C)C(=O)N[C@@H](Cc3ccccc3)C(=O)N[C@@H](CCCCN)C(=O)N[C@@H](C)C(=O)N[C@@H](CCCNC(=N)N)C(=O)N[C@@H](CCCCN)C(=O)N[C@@H](Cc3ccccc3)C(=O)O)ccc1C21OC(=O)c2ccccc21 (some centres not stated) | – | – | – | Ki [12]: 563 µM
12 | CC(C)(NC(=O)c1cccc2cc(-c3ccc(Cl)cc3)oc12)C(=O)O | 1.03 | > 30 | > 30 | –
13 | CN(C(=O)c1cc(F)cc2cc(-c3ccc(Cl)cc3)oc12)C(C)(C)C(=O)O | 1.97 | – | – | –
14 | O=C(NC1(C(=O)O)CC1)c1cc(F)cc2cc(-c3ccc(Cl)cc3)oc12 | 1.12 | > 30 | > 30 | –
15 | CC(C)(NC(=O)c1cccc2c(Br)c(-c3ccc(Cl)cc3)oc12)C(=O)O | 1.76 | > 30 | > 30 | –
16 | O=C(NC1(C(=O)O)CCC1)c1cc(F)cc2cc(-c3ccc(C(F)(F)F)cc3)oc12 | 1.62 | – | – | Papp A→B [6]: 18.4 ×10⁻⁶ cm/s; ΔTm [7]: 0.5 °C
17 | O=C(NC1(C(=O)O)CCCCC1)c1cccc2cc(-c3ccc(Cl)cc3)oc12 | 0.12 | > 30 | > 30 | –
18 | O=C(NC1(C(=O)O)CCCC1)c1cc(F)cc2cc(-c3ccc(Cl)cc3)oc12 | 0.099 | > 30 | > 30 | –
19 | CC(C)C[C@H](N)C(=O)Nc1ccc2c(c1)Oc1cc(NC(=O)[C@H](N)CCC(N)=O)ccc1C21OC(=O)c2ccccc21 (some centres not stated) | – | – | – | Ki [13]: 335 µM
20 | CC(C)C[C@H](N)C(=O)Nc1ccc2c(c1)Oc1cc(NC(=O)[C@@H](CCC(N)=O)N[C@@H](Cc3ccccc3)C(=O)N[C@@H](CCCCN)C(=O)N[C@@H](C)C(=O)N[C@@H](CCCNC(=N)N)C(=O)N[C@@H](CCCCN)C(=O)N[C@@H](Cc3ccccc3)C(=O)O)ccc1C21OC(=O)c2ccccc21 (some centres not stated) | – | – | – | Ki [14]: 151 µM
21 | CC(C)(NC(=O)c1cc(F)cc2cc(-c3ccc(Cl)cc3)oc12)C(=O)O | 0.698 | > 30 | > 30 | microsomal CLint [4]: 33 µL/min/mg; microsomal CLint [5]: < 20 µL/min/mg; Papp A→B [6]: 10.8 ×10⁻⁶ cm/s; ΔTm [7]: 0.94 °C; microsomal CLint [8]: 25 µL/min/mg; IC50 [10]: > 30 µM; IC50 [11]: > 30 µM
22 | O=C(N[C@@H](Cc1ccccc1)C(=O)O)c1cc(F)cc2cc(-c3ccc(Cl)cc3)oc12 | 1.76 | > 30 | > 30 | –
23 | B1 | – | – | – | Km [15]: 3.7 µM; Km [16]: 3.1 µM; Km [17]: 2 µM; Km [18]: 31.8 µM
